Measured values: patent US9573954B2, “Pyrazolopyrimidine compounds” (University Health Network, priority 2012, dated 2017)
Read-outs that look alike come from different tables or passages of the source.

Key:
human TTK = biological target: T1, human TTK (Homo sapiens, UniProt P33981); experiment: TTK inhibition assay (indirect ELISA); format: biochemical
T1 construct: Active TTK was purchased from Invitrogen as an amino terminal GST fusion of full length human TTK; purchased Invitrogen
T1 sequence (P33981 1-857): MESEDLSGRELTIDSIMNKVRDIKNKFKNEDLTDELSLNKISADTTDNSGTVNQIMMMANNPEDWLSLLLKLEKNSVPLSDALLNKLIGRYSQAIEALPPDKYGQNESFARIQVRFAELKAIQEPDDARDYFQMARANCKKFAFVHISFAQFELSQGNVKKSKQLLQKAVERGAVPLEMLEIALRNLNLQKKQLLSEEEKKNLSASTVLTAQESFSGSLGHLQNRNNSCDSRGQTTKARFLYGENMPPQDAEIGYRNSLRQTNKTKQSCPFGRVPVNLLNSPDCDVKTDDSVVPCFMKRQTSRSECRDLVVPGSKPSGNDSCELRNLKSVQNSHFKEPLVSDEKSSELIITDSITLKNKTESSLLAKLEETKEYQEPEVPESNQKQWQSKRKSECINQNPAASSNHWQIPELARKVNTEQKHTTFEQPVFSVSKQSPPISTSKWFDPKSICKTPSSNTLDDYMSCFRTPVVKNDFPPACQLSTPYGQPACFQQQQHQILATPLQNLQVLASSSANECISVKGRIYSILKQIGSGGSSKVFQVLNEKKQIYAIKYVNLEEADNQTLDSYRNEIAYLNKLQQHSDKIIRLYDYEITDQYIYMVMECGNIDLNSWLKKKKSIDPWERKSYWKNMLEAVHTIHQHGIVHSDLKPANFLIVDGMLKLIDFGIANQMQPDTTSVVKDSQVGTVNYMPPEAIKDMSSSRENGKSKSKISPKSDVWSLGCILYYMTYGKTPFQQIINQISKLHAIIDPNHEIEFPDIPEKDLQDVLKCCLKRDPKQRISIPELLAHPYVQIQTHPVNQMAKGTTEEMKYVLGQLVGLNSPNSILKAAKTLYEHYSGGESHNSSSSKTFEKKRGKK
How it was run: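 Activity detected by indirect ELISA after compounds sat with full-length GST-TTK for 5 min prior to starting the reaction with ATP. IC50 came from a four-parameter logistic curve of % inhibition, calculated against background and uninhibited control wells.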

[1] = tested on: colon cancer cells (HCT116); experiment: Cancer cell line growth inhibition, Sulforhodamine B assay, HCT116; format: cell-based; settings: read-out: Cancer Cell Line GI50 Range HCT116
Description: (§1) Breast cancer cells (MDA-MB-231 and MDA-MB-468), colon cancer cells (HCT116) and ovarian cancer cells (PA-1 and OVCAR-3) were seeded (1000 to 4000 in 80 μl per well depending on the cell growth rate) into 96 well plates 24 hours before compound overlay. Compounds were prepared as 10 mM stock solutions in 100% DMSO which were diluted with DMEM (Dulbecco's Modified Eagle's Medium) cell growth Medium (Invitrogen, Burlington, ON, Canada) containing 10% FBS (Fetal Bovine Serum) to concentrations ranging from 50 nM to 250 μM. Aliquots (20 μl) from each concentration were overlaid to 80 μl of the pre-seeded cells in the 96 well plates to make final concentrations of 10 nM to 50 μM. The cells were cultured for 5 days before the Sulforhodamine B assay (SRB) was performed to determine the compound's cell growth inhibition activity.
(§2) Sulforhodamine B (purchased from Sigma, Oakville, ON, Canada) is a water-soluble dye that binds to the basic amino acids of the cellular proteins. Thus, colorimetric measurement of the bound dye provides an estimate of the total protein mass that is related to the cell number. the cells are fixed in situ by gently aspirating off the culture media and adding 50 μl ice cold 10% Trichloroacetic Acid (TCA) per well and incubate at 4° C. for 30-60 min, The plates are washed with H2O five times and allowed to air dry for 5 min. Addition of 50 μl 0.4% (w/v) SRB solution in 1% (v/v) acetic acid to each well and incubation for 30 min at RT completes the staining reaction. Following staining, plates are washed four times with 1% acetic acid to remove unbound dye and then allowed to air dry for 5 min. The stain is solubilized with 100 μl of 10 mM Tris pH 10.5 per well. Absorbance is read at 570 nm.
(§3) The percentage (%) of relative growth inhibition was calculated by comparing to DMSO treated only cells (100%). GI50's were determined for compounds with cytotoxic activity. The GI50 was calculated using GraphPad PRISM software (GraphPad Software, Inc., San Diego, Calif., USA).
(§4) In Table 1 below, GI50 value ranges for compound examples against breast cancer cell lines (MDA-MB-468), colon cancer cell lines (HCT116) and ovarian cancer cell lines (PA-1) are given.
In Table 2 below, GI50 value ranges for compound examples against breast cancer cell lines (MDA-MB-231), colon cancer cell lines (HCT116) and ovarian cancer cell lines (PA-1) are given.
(§5) In Table 3 below, GI50 value ranges for compound examples against breast cancer cell lines (MDA-MB-468), colon cancer cell lines (HCT116) and ovarian cancer cell lines (OVCAR-3) are given.

[2] = tested on: breast cancer cells (MDA-MB-468); experiment: Cancer cell line growth inhibition, Sulforhodamine B assay, MDA-MB-468; format: cell-based; settings: read-out: Cancer Cell Line GI50 Range MDA-MB-468
Description: as §1, §2, §3, §4, §5

[3] = tested on: ovarian cancer cells (OVCAR-3); experiment: Cancer cell line growth inhibition, Sulforhodamine B assay, OVCAR-3; format: cell-based; settings: read-out: Cancer Cell Line GI50 Range OVCAR-3
Description: as §1, §2, §3, §5

[4] = 100 μM ATP, read-out: TTK IC50 Range
[5] = Homo sapiens, HCT-116, HCT116 colon cancer cell line
[6] = Homo sapiens, MDA-MB-468, MDA-MB-468 breast cancer cell line
[7] = Homo sapiens, OVCAR-3, OVCAR-3 ovarian cancer cell line

Compound	IC50 (human TTK; [4])	GI50 [1, 5]	GI50 [2, 6]	GI50 [3, 7]	GI50 ([1]; HCT116 colon cancer cell line)	GI50 ([2]; MDA-MB-468 breast cancer cell line)	GI50 ([3]; OVCAR-3 ovarian cancer cell line)	IC50 (human TTK; 16 μM ATP (Sigma cat# A7699), read-out: TTK IC50 Range (denoted with an asterisk))
Cc1cc(-c2cnn3c(NCC4CCOCC4)cc(N[C@@H](CO)C(C)C)nc23)ccc1C(=O)NC1CC1 [Example C121]	< 0.1 µM	0.1 to 0.5 µM	0.1 to 0.5 µM	> 0.5 µM				
Cc1cc(-c2cnn3c(NCC4CCOCC4)cc(N[C@H]4CCCC[C@H]4CO)nc23)ccc1C(=O)NC1CC1 [Example C131]	< 0.1 µM	0.1 to 0.5 µM	0.1 to 0.5 µM	> 0.5 µM				
Cc1cc(-c2cnn3c(NC[C@H]4CCCO4)cc(NC4CCCC4)nc23)ccc1C(=O)NC1CC1 [Example C72]	< 0.1 µM				≤ 0.1 µM	≤ 0.1 µM	0.1 to 0.5 µM	
Cc1cc(-c2cnn3c(NCC4CCOCC4)cc(N[C@H]4CCOC4)nc23)ccc1C(=O)NC1CC1 [Example C138]	< 0.1 µM	≤ 0.1 µM	0.1 to 0.5 µM	0.1 to 0.5 µM				
Cc1cc(-c2cnn3c(NCC4(F)CCNCC4)cc(OC4CCCC4)nc23)ccc1C(=O)NC1CC1 [Example C173]	< 0.1 µM	0.1 to 0.5 µM	> 0.5 µM	> 0.5 µM				
O=C(NC1CC1)c1ccc(-c2cnn3c(NCCN4CCOCC4)cc(Oc4cccc(F)c4F)nc23)cc1Cl [Example C33, 2-chloro-N-cyclopropyl-4-(5-(2,3-difluorophenoxy)-7-((2-morpholinoethyl)amino)pyrazolo[1,5-a]pyrimidin-3-yl)benzamide]	< 0.1 µM	≤ 0.1 µM	≤ 0.1 µM	≤ 0.1 µM				
Cc1cc(-c2cnn3c(NCC4CCOCC4)nc(NC4CCCCC4)nc23)ccc1C(=O)NC1CC1 [Example C22]		0.1 to 0.5 µM	0.1 to 0.5 µM	0.1 to 0.5 µM				< 0.1 µM
Cc1cc(-c2cnn3c(NCC4(CO)CCOCC4)cc(NC4CCCC4)nc23)ccc1C(=O)NC1CC1 [Example C92]	< 0.1 µM	0.1 to 0.5 µM	> 0.5 µM	> 0.5 µM				
CCO[C@H]1COC[C@@H]1Nc1cc(NCC2CCOCC2)n2ncc(-c3ccc(C(=O)NC4CC4)c(C)c3)c2n1 [Example C90]	< 0.1 µM	0.1 to 0.5 µM	0.1 to 0.5 µM	> 0.5 µM				
Cc1cc(-c2cnn3c(NCC4CCOCC4)cc(Nc4cccnc4)nc23)ccc1C(=O)NC1CC1 [Example C59]	< 0.1 µM	0.1 to 0.5 µM	0.1 to 0.5 µM	0.1 to 0.5 µM				
Cc1cc(-c2cnn3c(NCC4(O)CCOCC4)cc(NC4CCCC4)nc23)ccc1C(=O)NC1CC1 [Example C95]	< 0.1 µM	0.1 to 0.5 µM	> 0.5 µM	> 0.5 µM				
Cc1cc(-c2cnn3c(NCC4CCOCC4)cc(N4CCOC[C@H]4CO)nc23)ccc1C(=O)NC1CC1 [Example C87]	< 0.1 µM	0.1 to 0.5 µM	0.1 to 0.5 µM	> 0.5 µM				
Cc1cc(-c2cnn3c(NCCCn4ccnc4)cc(N[C@H]4CCCC[C@H]4O)nc23)ccc1C(=O)NC1CC1 [Example C132]	< 0.1 µM	> 0.5 µM	0.1 to 0.5 µM	> 0.5 µM				
Cc1cc(-c2cnn3c(NCC4(O)CCOCC4)cc(NC4CCOCC4)nc23)ccc1C(=O)NC1CC1 [Example C94]	< 0.1 µM	> 0.5 µM	> 0.5 µM	> 0.5 µM				
COCCNc1cc(N[C@H]2CCCC[C@H]2O)nc2c(-c3ccc(C(=O)NC4CC4)c(C)c3)cnn12 [Example C108]	< 0.1 µM	≤ 0.1 µM	0.1 to 0.5 µM	≤ 0.1 µM				
Cc1cc(-c2cnn3c(NCC4(O)CCOCC4)cc(Oc4cccnc4)nc23)ccc1C(=O)NC1CC1 [Example C98]	< 0.1 µM	0.1 to 0.5 µM	> 0.5 µM	> 0.5 µM				
CC[C@H](Nc1cc(NC[C@H]2CCOC2)n2ncc(-c3ccc(C(=O)NC4CC4)c(C)c3)c2n1)[C@H](C)O [Example C133]	< 0.1 µM	0.1 to 0.5 µM	0.1 to 0.5 µM	0.1 to 0.5 µM				
Cc1cc(-c2cnn3c(NCC4CCOCC4)cc(N[C@@H]4CCOC4)nc23)ccc1C(=O)NC1CC1 [Example C136]	< 0.1 µM	≤ 0.1 µM	≤ 0.1 µM	0.1 to 0.5 µM				
Cc1cc(-c2cnn3c(NC[C@H]4C[C@@](C)(O)C4)cc(NC4CCCC4)nc23)ccc1C(=O)NC1CC1 [Example C44, 4-(5-(cyclopentylamino)-7-((((1s,3s)-3-hydroxy-3-methylcyclobutyl)methyl)amino)pyr-azolo[1,5-a]pyrimidin-3-yl)-N-cyclopropyl-2-methylbenzamide]	< 0.1 µM	≤ 0.1 µM	≤ 0.1 µM	≤ 0.1 µM				
Cc1cc(-c2cnn3c(NCCN4CCOCC4)cc(Oc4cccc(N(C)C)c4)nc23)ccc1C(=O)NC1CC1 [Example C96]	< 0.1 µM	> 0.5 µM	> 0.5 µM	> 0.5 µM				
Cc1cc(-c2cnn3c(NCC4CCOCC4)cc(NCC4COC4)nc23)ccc1C(=O)NC1CC1 [Example C71]	< 0.1 µM	0.1 to 0.5 µM	0.1 to 0.5 µM	> 0.5 µM				
